Each block holds one compound with its values, some of them ahead of it.
Legend:
[1] = biological target: Fibroblast growth factor receptor 2 (Homo sapiens) (UniProt P21802); test: Selectivity interaction (KinomeScan (DiscoverX)) EUB0000666a FGFR2; conditions: at 10 µM
[2] = biological target: T1, Phosphatidylinositol 5-phosphate 4-kinase type-2 gamma (Homo sapiens) (UniProt Q8TBX8); test: Selectivity interaction (KinomeScan (DiscoverX)) EUB0000666a PIP4K2C; conditions: at 10 µM
T1 sequence (whole entry): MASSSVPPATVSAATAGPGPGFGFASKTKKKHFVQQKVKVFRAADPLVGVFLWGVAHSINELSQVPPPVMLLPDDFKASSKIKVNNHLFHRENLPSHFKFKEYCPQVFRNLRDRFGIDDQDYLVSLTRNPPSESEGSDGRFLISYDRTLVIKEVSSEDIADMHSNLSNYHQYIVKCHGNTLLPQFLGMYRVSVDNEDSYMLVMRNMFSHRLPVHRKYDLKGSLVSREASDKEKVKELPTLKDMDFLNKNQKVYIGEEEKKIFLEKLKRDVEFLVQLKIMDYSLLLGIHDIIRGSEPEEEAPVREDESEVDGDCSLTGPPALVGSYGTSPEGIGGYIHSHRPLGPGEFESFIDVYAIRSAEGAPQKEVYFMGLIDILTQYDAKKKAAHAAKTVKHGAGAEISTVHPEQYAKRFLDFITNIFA

D(1A) dopamine receptor = D(1A) dopamine receptor (Homo sapiens, UniProt P21728); test: Selectivity interaction (GPCR panel (PDSP screen)) EUB0000311b DRD1; conditions: at 10 µM
[3] = biological target: Epithelial discoidin domain-containing receptor 1 (Homo sapiens) (UniProt Q08345); test: Selectivity interaction (KinomeScan (DiscoverX)) EUB0000607a DDR1; conditions: at 10 µM
[4] = biological target: Protein kinase C eta type (Homo sapiens) (UniProt P24723); test: Selectivity interaction (KinomeScan (DiscoverX)) EUB0000607a PRKCH; conditions: at 10 µM
Sequence of Protein kinase C eta type (Homo sapiens) (P24723 whole entry): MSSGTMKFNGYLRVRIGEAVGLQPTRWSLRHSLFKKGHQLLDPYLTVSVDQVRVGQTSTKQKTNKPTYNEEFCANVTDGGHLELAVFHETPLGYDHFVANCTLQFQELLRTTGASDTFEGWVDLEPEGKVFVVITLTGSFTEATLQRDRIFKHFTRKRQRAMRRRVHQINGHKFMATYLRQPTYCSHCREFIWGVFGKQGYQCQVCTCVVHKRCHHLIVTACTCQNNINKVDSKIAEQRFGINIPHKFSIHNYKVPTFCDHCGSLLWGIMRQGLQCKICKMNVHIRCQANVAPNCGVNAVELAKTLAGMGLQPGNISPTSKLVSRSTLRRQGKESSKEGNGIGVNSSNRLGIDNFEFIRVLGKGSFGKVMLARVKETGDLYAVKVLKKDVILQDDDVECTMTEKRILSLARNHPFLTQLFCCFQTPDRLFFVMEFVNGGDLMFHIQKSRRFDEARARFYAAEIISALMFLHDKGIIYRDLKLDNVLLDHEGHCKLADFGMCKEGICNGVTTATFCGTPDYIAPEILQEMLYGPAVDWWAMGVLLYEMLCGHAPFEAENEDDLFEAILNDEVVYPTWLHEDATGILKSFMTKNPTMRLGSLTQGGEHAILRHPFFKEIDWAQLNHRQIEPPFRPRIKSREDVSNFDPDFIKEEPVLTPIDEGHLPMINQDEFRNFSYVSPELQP

[5] = biological target: Dual specificity protein kinase CLK3 (Homo sapiens, UniProt P49761); conditions: at 1 µM
Sequence of Dual specificity protein kinase CLK3 (P49761 whole entry, looked up): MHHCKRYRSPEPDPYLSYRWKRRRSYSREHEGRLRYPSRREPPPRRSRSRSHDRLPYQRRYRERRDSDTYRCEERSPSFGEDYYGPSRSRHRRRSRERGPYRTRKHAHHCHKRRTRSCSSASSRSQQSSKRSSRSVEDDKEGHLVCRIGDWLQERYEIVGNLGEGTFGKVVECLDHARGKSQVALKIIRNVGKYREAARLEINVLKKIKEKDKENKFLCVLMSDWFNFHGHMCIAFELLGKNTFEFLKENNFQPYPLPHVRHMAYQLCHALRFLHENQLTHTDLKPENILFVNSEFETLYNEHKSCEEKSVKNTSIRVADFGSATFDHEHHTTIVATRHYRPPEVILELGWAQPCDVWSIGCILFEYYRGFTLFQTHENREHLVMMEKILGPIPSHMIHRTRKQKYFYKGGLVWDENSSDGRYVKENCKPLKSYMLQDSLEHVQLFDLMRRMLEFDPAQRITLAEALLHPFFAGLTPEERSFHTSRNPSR

[6] = biological target: T2, Eukaryotic elongation factor 2 kinase (Homo sapiens) (UniProt O00418); test: Selectivity interaction (Kinase panel (Invitrogen)) EUB0000639a EEF2K; conditions: at 200 nM
T2 sequence (whole entry): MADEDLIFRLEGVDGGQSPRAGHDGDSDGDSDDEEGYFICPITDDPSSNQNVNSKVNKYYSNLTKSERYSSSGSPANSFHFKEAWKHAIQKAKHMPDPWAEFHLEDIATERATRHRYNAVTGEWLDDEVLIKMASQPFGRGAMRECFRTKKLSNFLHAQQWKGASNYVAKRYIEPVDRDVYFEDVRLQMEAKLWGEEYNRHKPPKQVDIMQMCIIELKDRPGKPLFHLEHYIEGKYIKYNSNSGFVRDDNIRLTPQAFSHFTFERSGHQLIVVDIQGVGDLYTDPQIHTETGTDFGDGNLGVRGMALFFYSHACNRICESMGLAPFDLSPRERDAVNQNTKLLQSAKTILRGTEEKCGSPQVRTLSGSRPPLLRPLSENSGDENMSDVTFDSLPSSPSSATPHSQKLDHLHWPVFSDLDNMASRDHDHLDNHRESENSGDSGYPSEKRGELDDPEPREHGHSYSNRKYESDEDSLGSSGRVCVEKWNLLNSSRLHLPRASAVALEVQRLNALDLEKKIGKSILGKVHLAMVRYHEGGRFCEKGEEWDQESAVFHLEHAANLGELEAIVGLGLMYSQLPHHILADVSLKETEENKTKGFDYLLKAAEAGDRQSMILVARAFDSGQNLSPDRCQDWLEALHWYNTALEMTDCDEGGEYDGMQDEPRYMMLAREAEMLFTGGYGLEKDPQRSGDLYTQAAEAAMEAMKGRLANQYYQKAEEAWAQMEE

[7] = biological target: Serine/threonine-protein kinase Nek6 (Homo sapiens) (UniProt Q9HC98); conditions: at 10 µM
Sequence of Serine/threonine-protein kinase Nek6 (Homo sapiens) (Q9HC98 whole entry): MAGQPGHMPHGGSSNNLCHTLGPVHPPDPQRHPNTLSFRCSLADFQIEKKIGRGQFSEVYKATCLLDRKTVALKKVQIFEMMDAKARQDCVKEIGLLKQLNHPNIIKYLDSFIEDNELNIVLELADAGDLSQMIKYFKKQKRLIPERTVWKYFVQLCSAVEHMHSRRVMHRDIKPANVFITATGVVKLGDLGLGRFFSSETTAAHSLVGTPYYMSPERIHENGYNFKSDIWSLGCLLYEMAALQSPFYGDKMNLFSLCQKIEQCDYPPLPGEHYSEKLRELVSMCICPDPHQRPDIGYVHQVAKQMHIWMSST

[8] = biological target: Tyrosine-protein kinase receptor Tie-1 (Homo sapiens) (UniProt P35590); test: Selectivity interaction (Ambit KINOMEscan and KiNATiv profiling in Jurkat cells) EUB0000090b TIE1; format: cell-based; conditions: at 1 µM
Sequence of Tyrosine-protein kinase receptor Tie-1 (Homo sapiens) (P35590 whole entry): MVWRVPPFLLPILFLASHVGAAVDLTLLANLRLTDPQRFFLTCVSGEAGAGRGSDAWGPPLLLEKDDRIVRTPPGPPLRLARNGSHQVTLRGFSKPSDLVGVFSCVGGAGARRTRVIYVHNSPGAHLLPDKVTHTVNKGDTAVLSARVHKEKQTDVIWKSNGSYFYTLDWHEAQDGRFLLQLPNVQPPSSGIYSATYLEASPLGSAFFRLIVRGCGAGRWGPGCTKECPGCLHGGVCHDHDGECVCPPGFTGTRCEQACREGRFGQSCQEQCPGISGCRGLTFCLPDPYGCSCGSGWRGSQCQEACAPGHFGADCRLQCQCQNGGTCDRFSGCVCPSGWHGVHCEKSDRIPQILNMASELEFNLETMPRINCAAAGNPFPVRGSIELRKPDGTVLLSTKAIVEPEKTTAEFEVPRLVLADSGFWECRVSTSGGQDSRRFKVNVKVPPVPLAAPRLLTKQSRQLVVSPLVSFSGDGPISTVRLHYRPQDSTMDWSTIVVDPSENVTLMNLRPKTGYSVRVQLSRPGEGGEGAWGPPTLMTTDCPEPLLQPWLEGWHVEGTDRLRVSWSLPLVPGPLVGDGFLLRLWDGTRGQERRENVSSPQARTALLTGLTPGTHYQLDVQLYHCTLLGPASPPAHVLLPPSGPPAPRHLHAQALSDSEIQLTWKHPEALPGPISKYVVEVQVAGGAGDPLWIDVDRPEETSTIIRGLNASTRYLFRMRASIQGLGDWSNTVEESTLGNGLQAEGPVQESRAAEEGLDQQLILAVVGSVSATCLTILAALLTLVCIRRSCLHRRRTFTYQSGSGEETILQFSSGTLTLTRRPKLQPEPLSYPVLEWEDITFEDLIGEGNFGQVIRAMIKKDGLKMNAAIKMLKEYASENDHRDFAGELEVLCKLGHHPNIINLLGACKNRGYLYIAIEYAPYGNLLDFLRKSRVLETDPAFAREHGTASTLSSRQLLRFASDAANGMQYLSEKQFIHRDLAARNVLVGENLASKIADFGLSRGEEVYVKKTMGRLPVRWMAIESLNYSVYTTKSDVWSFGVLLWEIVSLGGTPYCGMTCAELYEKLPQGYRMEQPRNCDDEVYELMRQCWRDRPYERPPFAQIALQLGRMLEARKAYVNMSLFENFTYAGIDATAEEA

[9] = biological target: 5-hydroxytryptamine receptor 2A (Homo sapiens, UniProt P28223); test: Selectivity interaction (GPCR panel (PDSP screen)) EUB0001079a HTR2A; conditions: at 10 µM
Sequence of 5-hydroxytryptamine receptor 2A (P28223 whole entry): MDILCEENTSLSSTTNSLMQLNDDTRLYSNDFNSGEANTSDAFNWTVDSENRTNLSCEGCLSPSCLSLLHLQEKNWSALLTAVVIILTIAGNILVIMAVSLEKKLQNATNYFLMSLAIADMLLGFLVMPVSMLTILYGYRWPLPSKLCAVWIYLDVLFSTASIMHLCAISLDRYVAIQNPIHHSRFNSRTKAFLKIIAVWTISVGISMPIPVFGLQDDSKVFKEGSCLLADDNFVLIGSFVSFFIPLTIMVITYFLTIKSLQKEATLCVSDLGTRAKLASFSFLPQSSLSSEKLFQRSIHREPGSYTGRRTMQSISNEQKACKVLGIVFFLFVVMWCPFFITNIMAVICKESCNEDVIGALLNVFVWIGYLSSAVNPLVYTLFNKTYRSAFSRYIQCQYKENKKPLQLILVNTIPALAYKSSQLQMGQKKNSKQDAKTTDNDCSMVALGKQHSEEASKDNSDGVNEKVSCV

Activated CDC42 kinase 1 = Activated CDC42 kinase 1 (Homo sapiens, UniProt Q07912); test: Selectivity interaction (KinomeScan (DiscoverX)) EUB0000092b TNK2; conditions: at 10 µM
Sequence of Activated CDC42 kinase 1 (Q07912 whole entry, looked up): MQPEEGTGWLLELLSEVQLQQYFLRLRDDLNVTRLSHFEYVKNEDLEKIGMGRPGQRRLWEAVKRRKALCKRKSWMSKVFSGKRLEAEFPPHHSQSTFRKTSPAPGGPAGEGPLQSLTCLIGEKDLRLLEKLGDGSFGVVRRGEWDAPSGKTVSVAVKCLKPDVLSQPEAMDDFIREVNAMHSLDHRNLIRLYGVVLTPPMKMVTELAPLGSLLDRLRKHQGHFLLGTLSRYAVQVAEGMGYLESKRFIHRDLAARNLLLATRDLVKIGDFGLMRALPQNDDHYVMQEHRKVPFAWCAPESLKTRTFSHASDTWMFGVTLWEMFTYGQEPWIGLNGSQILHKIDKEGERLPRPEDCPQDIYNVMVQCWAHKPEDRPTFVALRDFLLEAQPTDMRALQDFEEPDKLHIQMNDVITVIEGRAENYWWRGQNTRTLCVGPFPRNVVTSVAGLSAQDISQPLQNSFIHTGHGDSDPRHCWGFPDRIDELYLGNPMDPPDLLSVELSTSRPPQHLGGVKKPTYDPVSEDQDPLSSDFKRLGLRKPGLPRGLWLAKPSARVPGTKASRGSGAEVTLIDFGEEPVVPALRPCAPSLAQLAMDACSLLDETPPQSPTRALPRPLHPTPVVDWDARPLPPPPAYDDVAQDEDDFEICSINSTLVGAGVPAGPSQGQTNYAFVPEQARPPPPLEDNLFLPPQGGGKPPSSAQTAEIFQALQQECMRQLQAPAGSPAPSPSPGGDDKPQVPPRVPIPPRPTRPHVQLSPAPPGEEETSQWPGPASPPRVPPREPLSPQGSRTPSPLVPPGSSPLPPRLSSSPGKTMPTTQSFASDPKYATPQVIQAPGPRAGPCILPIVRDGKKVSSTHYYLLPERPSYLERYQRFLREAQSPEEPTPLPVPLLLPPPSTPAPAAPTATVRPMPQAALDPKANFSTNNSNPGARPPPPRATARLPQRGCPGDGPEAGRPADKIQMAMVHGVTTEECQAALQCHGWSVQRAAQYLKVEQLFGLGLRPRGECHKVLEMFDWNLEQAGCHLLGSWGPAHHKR

[10] = biological target: Proto-oncogene tyrosine-protein kinase ROS (Homo sapiens) (UniProt P08922); conditions: at 10 µM
[11] = biological target: T3, Mitogen-activated protein kinase 12 (Homo sapiens) (UniProt P53778); test: Selectivity interaction (ActivX KiNativ screen (ex vivo kinase selectivity in human PBMCs)) EUB0001619a MAPK12; format: cell-based; conditions: PBMC, at 1 µM
T3 sequence (whole entry): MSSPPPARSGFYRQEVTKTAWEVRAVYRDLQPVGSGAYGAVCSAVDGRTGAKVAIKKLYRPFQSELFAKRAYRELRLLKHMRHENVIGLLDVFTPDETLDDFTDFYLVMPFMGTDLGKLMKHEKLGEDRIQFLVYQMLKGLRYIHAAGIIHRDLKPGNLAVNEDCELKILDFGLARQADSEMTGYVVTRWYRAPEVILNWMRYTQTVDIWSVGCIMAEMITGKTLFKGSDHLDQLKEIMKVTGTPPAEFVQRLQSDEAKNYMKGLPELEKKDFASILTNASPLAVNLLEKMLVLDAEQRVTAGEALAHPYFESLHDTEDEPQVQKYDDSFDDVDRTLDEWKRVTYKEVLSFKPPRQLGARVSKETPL

Sequence of Fibroblast growth factor receptor 2 (Homo sapiens) (P21802 22-821 limits assumed): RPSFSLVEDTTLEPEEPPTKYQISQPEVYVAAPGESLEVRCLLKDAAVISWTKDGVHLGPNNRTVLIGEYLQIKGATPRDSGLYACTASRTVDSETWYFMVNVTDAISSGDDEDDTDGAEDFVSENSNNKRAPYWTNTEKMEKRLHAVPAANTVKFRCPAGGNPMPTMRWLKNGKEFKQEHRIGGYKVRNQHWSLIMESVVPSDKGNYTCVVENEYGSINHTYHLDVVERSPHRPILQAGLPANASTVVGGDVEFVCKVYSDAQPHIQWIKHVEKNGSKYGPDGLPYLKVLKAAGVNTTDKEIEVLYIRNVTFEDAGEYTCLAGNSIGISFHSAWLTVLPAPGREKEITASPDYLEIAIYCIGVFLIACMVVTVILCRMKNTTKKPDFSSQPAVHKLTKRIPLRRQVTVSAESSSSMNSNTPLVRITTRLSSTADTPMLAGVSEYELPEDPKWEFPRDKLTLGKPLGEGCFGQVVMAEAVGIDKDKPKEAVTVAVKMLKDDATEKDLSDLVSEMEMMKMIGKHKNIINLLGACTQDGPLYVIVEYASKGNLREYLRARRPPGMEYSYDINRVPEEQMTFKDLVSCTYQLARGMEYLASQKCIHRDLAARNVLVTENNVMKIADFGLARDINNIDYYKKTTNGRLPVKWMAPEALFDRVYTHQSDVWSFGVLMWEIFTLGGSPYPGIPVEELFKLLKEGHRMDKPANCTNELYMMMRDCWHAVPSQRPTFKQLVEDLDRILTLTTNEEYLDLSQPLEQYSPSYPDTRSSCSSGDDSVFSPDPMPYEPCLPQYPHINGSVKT

Structure (SMILES): O=C(NOC[C@H](O)CO)c1ccc(F)c(F)c1Nc1ccc(I)cc1F
% of control [1]: 100%
% of control [2]: 100%

% of inhibition (D(1A) dopamine receptor): 67.4%
Structure (SMILES): CCc1ccccc1C(=O)Nc1n[nH]c2c(C)c(F)c(C3C(C#N)=C(C)N(C)C(C)=C3C#N)cc12 [BAY-3827]

Structure (SMILES): CNC(=O)Nc1ccc(-c2nc(N3CC4CCC(C3)O4)c3cnn(C4CCC5(CC4)OCCO5)c3n2)cc1
% of control [3]: 66%
% of control [4]: 91%

% of inhibition [5]: 24%
Structure (SMILES): Cc1ccc(-c2ccc3c(ccc4sc5c(c43)NC[C@@H](C)NC5=O)n2)cn1

% of inhibition [6]: 21.1%
Structure (SMILES): CC[C@@H]1[C@H](F)C(=O)N[C@@H]1COc1nccc2cc(C(N)=O)c(OC)cc12 [ZIMLOVISERTIB]

Structure (SMILES): COCC(=O)NC/C=C/c1ccc2ncnc(Nc3ccc(Oc4ccc(C)nc4)c(C)c3)c2c1 [CP-724714]
% of control [7]: 100%

Structure (SMILES): CN(C)C/C=C/C(=O)Nc1ccc(C(=O)N2CCCC(Nc3ncc(Cl)c(-c4c[nH]c5ccccc45)n3)C2)cc1 (stereo not drawn)
% of control [8]: 96%

Structure (SMILES): Nc1cnc(N2CCc3cc(S(=O)(=O)Nc4c(F)cc(Cl)cc4F)cc(N4CCCC4=O)c32)nc1 [TP-020n]
% of inhibition [9]: -2.82%

Structure (SMILES): CCC(=O)N1CCN(c2ccc(-n3c(=O)ccc4cnc5ccc(-c6cnc7ccccc7c6)cc5c43)cc2C(F)(F)F)CC1
% of control (Activated CDC42 kinase 1): 51%

Structure (SMILES): Cc1cc([C@@H](C)Nc2ccccc2C(=O)O)c2nc(N3CCOCC3)cc(=O)n2c1 [AZD-6482]
% of control [10]: 100%

Structure (SMILES): N#Cc1cccc(-c2c[nH]c3ncnc(N4CCOCC4)c23)c1
% of inhibition [11]: -6%

From ChEMBL document CHEMBL5465560, “Selectivity Literature for EUbOPEN Chemogenomic Library” (2024)
